Source: patent publication US6169181A, “Compounds useful to treat retroviral infections” (Pharmacia & Upjohn Company, priority 1998, dated 2001)
Like-named read-outs stand apart in the source and are kept apart here.

How the values were obtained:
[1] = target: T1, HIV-1 protease (Human immunodeficiency virus type 1 group M subtype B, UniProt P04585); assay: biochemical; conditions: for inhibition at 0.123 µM / inhibition at 0.37 µM / inhibition at 1.1 µM / inhibition at 3.3 µM / inhibition at 10 µM / inhibition at 30 µM: Table I, read-out: Protease % Inhib; for inhibition at 0.37 µM: Dose 0.370 μM; for inhibition at 1.1 µM: Dose 1.100 μM; for inhibition at 3.3 µM: Dose 3.300 μM; for PROTEASE % INHIB.: Table II, enzyme HIV-1
Procedure: (§1) The HIV protease screening assay is based on fluorescently labeled substrate which can be resolved from nonlabeled cleavage product using special beads coated with streptavidin. The substrate is biotinylated at the amino terminal arginine and fluorescently labeled with fluorescein isothiocynate (FITC) at the carboxyl terminal lysine. This assay has been employed to detect novel, nonpeptidic inhibitors of HIV-1 protease. Substrate (20 μM of 0.2 μM), sample (10 μl of desired concentraion), and enzyme (10 μl of 0.1 μM) are added to a 96 well pandex plate. The assay is run in 0.1 M sodium acetate buffer at pH 5.5 in the presence of 1.0 M sodium chloride and 0.05% NP-40 with incubated in the dark for one hour at room temperature. Strepavidin coated polystyrene beads {40 μl of 0.1% (w/v)} are added and the plate is incubated in the dark for an additional half hour. The labeled cleavage product is separated from the unreacted substrate via filtration and is read on the Idexx screen machine. The data are analyzed by appropriate computer algorithms to ascertain percent inhibition values.

[2] = target: T1, HIV-1 protease; assay: biochemical
Procedure: as §1, with “This assay has been employed to detect novel, nonpeptidic inhibitors of HIV-1 protease.” left out
Determination of Ki values utilizes the same materials and equipment employed for percent inhibition studies. Two-fold serial dilutions are made for a given inhibitor from 2, 3 or 4 starting concentrations with a total of 24, 36 or 48 individual inhibitor concentrations. These dilutions are performed utilizing the BioMek robotics system. The assay consists of 10 μL of 40 nM HIV-1 protease, 10 μL of the various inhibitor concentrations, and 20 μL of 200 μM substrate (40 μL total). The reaction is allowed to proceed for 90 min at room temperature, terminated with 40 μL of avidin beads and processed (supra vide). An inhibitor with a known K; is run in parallel to verify the validity of the assay. The data is processed utilizing a computer program employing a nonlinear least square analysis of the data to generate the Ki values.

[3] = Table I, read-out: HIV Protease FITC Assay Ki

Row | Compound | inhibition at 0.123 µM [1] [%] | inhibition at 0.37 µM [1] [%] | inhibition at 1.1 µM [1] [%] | inhibition at 3.3 µM [1] [%] | inhibition at 10 µM [1] [%] | inhibition at 30 µM [1] [%] | Ki [2, 3] [nM] | other results
1 | CC[C@H](Cc1ccccc1)c1cc(O)c(C(c2cccc(NS(=O)(=O)c3nccn3C)c2)C2CC2)c(=O)o1 (single isomer, unassigned) [Example 143, N-(3-(R or S)-{Cyclopropyl-[6-(1-(R)-ethylphenethyl)-4-hydroxy-2-oxo-2H-pyran-3-yl]-methyl}-phenyl)-1-methyl-1H-imidazole-2-sulfonamide] | 80.8 | 97.7 | 105 | 102 | 101 | 103 | 0.8 | 
2 | CCCC1(CCc2ccccc2)CC(O)=C(C(c2cccc(NS(=O)(=O)c3cccc4cccnc34)c2)C2CC2)C(=O)O1 (centres unmarked) [Example 60, N-[3-[1-(4-Hydroxy-2-oxo-6-phenethyl-6-propyl-5,6-dihydro-2H-pyran-3-yl)-cyclopropylmethyl]-phenyl]-8-quinolinesulfonamide] | 73 | 94.3 | 101 | 101 | 106 | 107 | 0.95 | 
3 | CC(C)(C)C(C1=C(O)CC(CCC2CC2)(CCC2CC2)OC1=O)c1cccc(NS(=O)(=O)c2ccc(C#N)cn2)c1 (centres unmarked) [Example 265, N-[3-(1-[6,6-Bis-(2-cyclopropyl-ethyl)-5,6-dihydro-4-hydroxy-2-oxo-2H-pyran-3-yl]-2,2-dimethyl-propyl)phenyl]-5-cyano-2-pyridinesulfonamide] | 33.2 | 56.3 | 57.8 | 63.7 | 80.3 | 85.6 | 1 | 
4 | Cn1cnc(S(=O)(=O)Nc2cccc(C(C3=C(O)CC(CCc4ccccc4)(CCc4ccccc4)OC3=O)C(C)(C)C)c2)c1 (centres unmarked) [Example 343, N-[3-{1-(4-Hydroxy-5,6-dihydro-2-oxo-6,6-bis(2-phenylethyl)-2H-pyran-3-yl)-2,2-dimethylpropyl}phenyl]-1-methyl-1H-imidazole-4-sulfonamide] |  |  |  |  |  |  |  | PROTEASE % INHIB. ([1]; DOSE 0.123 (unit not given)): 57.5%; PROTEASE % INHIB. ([1]; DOSE 0.370 (unit not given)): 76.83%; PROTEASE % INHIB. ([1]; DOSE 1.100 (unit not given)): 81.02%; PROTEASE % INHIB. ([1]; DOSE 3.300 (unit not given)): 86.43%; PROTEASE % INHIB. ([1]; DOSE 10.000 (unit not given)): 60.56%; PROTEASE % INHIB. ([1]; DOSE 30.000 (unit not given)): 46%; Ki ([2]; Table II, enzyme HIV-1, read-out: FITC KI): 2.9 nM
5 | CCC(C1=C(O)CC(CCc2ccc(F)cc2)(CCc2ccc(F)cc2)OC1=O)c1cccc(NS(=O)(=O)c2cn(C)cn2)c1 (centres unmarked) [Example 258, N-[3-{1-(4-Hydroxy-5,6-dihydro-2-oxo-6,6-bis(2-(4-fluorophenyl)ethyl)-2H-pyran-3-yl)propyl}phenyl]-1-methyl-1H-imidazole-4-sulfonamide] |  |  |  |  |  |  | 4.3 | 
6 | CCC(C1=C(O)C2CCCCC2OC1=O)c1cccc(NS(=O)(=O)c2ccc(C#N)cc2)c1 (centres unmarked) [Example 371] |  |  |  |  |  |  |  | Ki ([2]; read-out: FITC KI): 15.4 nM
7 | CC(C)(C)C(C1=C(O)CC(CCc2ccc(F)cc2)(CCc2ccc(F)cc2)OC1=O)c1cccc(NS(=O)(=O)c2ccc(C#N)cn2)c1 (centres unmarked) [Example 257, N-[3-{1-(4-Hydroxy-5,6-dihydro-2-oxo-6,6-bis(2-(4-fluorophenyl)ethyl)-2H-pyran-3-yl)-2,2-dimethylpropyl}phenyl]-5-cyanopyridine-2-sulfonamide] |  |  |  |  |  |  | 9 | 
8 | CCCC1(CCC)CC(O)=C(C(c2cccc(NS(=O)(=O)c3ccc(C#N)cn3)c2)C(C)(C)C)C(=O)O1 (centres unmarked) [Example 260, N-[3-{1-(4-Hydroxy-5,6-dihydro-2-oxo-6,6-dipropyl-2H-pyran-3-yl)-2,2-dimethylpropyl}phenyl]-5-cyanopyridine-2-sulfonamide] |  |  |  |  |  |  | 2 | 
